One may read the T/C as the ratio of treated to control.

Our source for the T/C values is PubChem BioAssay AID342 (DTP/NCI, 2004).

This test relates to Swiss mice, Sarcoma 180 sc, mean tumor weight T/C. The test can be described thus: NCI In Vivo Anticancer Drug Screen. Data for tumor model Sarcoma 180 (subcutaneous) in Swiss mice. The conditions noted are these: endpoint: mean tumor weight, higher = larger tumour. A digest of the protocol:
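T/C ratio: treated over vehicle-treated controls, measuring survival or tumor size in transplanted-tumor mice.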

The mark [1] stands for this setting: dose: 66.0 mg/kg/injection, schedule: Q01DX007 (ip), vehicle: carboxymethylcellulose (CMC).

Several values for one entry are separate records, joined by “and”; a condition that tells them apart may be missing. Equal values may be shown once.

Regarding `O=C1c2cc(Cl)ccc2-c2c(Cl)cc(Cl)cc21`, the T/C is, setting by setting: (dose: 25.0 mg/kg/injection, schedule: Q01DX007 (ip), vehicle: methylcellulose (MC)) 100 % of control; (dose: 43.0 mg/kg/injection, schedule: Q01DX007 (ip), vehicle: carboxymethylcellulose (CMC)) 76 % of control; under setting [1], 65 % of control; (dose: 98.0 mg/kg/injection, schedule: Q01DX007 (ip), vehicle: carboxymethylcellulose (CMC)) 44 % of control and 50 % of control; (dose: 147.0 mg/kg/injection, schedule: Q01DX007 (ip), vehicle: carboxymethylcellulose (CMC)) 36 % of control; (dose: 149.0 mg/kg/injection, schedule: Q01DX007 (ip), vehicle: carboxymethylcellulose (CMC)) 59 % of control. The T/C runs as follows: (dose: 222.0 mg/kg/injection, schedule: Q01DX007 (ip), vehicle: carboxymethylcellulose (CMC)) 30 % of control and 44 % of control; (dose: 222.0 mg/kg/injection, schedule: Q01DX007 (ip), vehicle: other) 48 % of control; (dose: 333.0 mg/kg/injection, schedule: Q01DX007 (ip), vehicle: carboxymethylcellulose (CMC)) 25 % of control and 32 % of control; (dose: 333.0 mg/kg/injection, schedule: Q01DX007 (ip), vehicle: other) 39 % of control; (dose: 500.0 mg/kg/injection, schedule: Q01DX007 (ip), vehicle: carboxymethylcellulose (CMC)) 22 % of control; (dose: 750.0 mg/kg/injection, schedule: Q01DX007 (ip), vehicle: other) 27 % of control.
As to `NC(Cc1cccs1)C(=O)O` (centres undefined), the T/C is 95 % of control (dose: 175.0 mg/kg/injection, schedule: Q01DX007 (ip), vehicle: carboxymethylcellulose (CMC)); 81 % of control (dose: 250.0 mg/kg/injection, schedule: Q01DX007 (ip), vehicle: carboxymethylcellulose (CMC)); 108 % of control (dose: 1000.0 mg/kg/injection, schedule: Q01DX007 (ip), vehicle: carboxymethylcellulose (CMC)).
On to `CO[C@H]1CC[C@@]2(C)C(=CC[C@@H]3[C@@H]2CC[C@]2(C)C(=O)C(=O)C[C@@H]32)C1`, for which the T/C is 154 % of control (dose: 22.0 mg/kg/injection, schedule: Q01DX007 (sc), vehicle: steriod suspending solution) and 74 % of control (dose: 33.0 mg/kg/injection, schedule: Q01DX007 (sc), vehicle: steriod suspending solution).
As to `COC1N(C2CC(O)C(CO)O2)C(=O)NC(=O)C1(F)Br` (centres undefined), the T/C by setting is: (dose: 22.0 mg/kg/injection, schedule: Q01DX007 (ip), vehicle: saline) 85 % of control and 99 % of control; (dose: 75.0 mg/kg/injection, schedule: Q01DX007 (ip), vehicle: saline) 26 % of control and 43 % of control.
On to `CN(C)Cc1c[nH]c2ccccc12`, for which, under “dose: 62.5 mg/kg/injection, schedule: Q01DX007 (ip), vehicle: carboxymethylcellulose (CMC)”, the T/C is 69 % of control.
Regarding `[N-]=[N+]=NC1(C(=O)O)CCCC1`, the T/C is, setting by setting: under setting [1], 71 % of control; (dose: 100.0 mg/kg/injection, schedule: Q01DX007 (ip), vehicle: carboxymethylcellulose (CMC)) 60 % of control; (dose: 225.0 mg/kg/injection, schedule: Q01DX007 (ip), vehicle: carboxymethylcellulose (CMC)) 63 % of control.
In the case of `CCC1OCCN1C(C)C` (centres undefined), the T/C runs as follows: (dose: 20.0 mg/kg/injection, schedule: Q01DX007 (ip), vehicle: other) 80 % of control; (dose: 33.0 mg/kg/injection, schedule: Q01DX007 (ip), vehicle: other) 75 % of control; (dose: 55.5 mg/kg/injection, schedule: Q01DX007 (ip), vehicle: saline) 79 % of control; (dose: 56.0 mg/kg/injection, schedule: Q01DX007 (ip), vehicle: other) 63 % of control; (dose: 83.3 mg/kg/injection, schedule: Q01DX007 (ip), vehicle: saline) 43 % of control; (dose: 84.0 mg/kg/injection, schedule: Q01DX007 (ip), vehicle: other) 49 % of control. Moreover, the T/C (dose: 125.0 mg/kg/injection, schedule: Q01DX007 (ip), vehicle: saline) was 21 % of control.
For `CC#CC(C)(O)CC` (centres undefined), the T/C (dose: 77.0 mg/kg/injection, schedule: Q#A X014 (ip), vehicle: methylcellulose (MC)) is 79 % of control; the T/C (dose: 115.5 mg/kg/injection, schedule: Q#A X014 (ip), vehicle: methylcellulose (MC)) was 75 % of control; the T/C (dose: 175.0 mg/kg/injection, schedule: Q#A X014 (ip), vehicle: methylcellulose (MC)) is 51 % of control; the T/C (dose: 212.5 mg/kg/injection, schedule: Q#A X014 (ip), vehicle: methylcellulose (MC)) was 44 % of control.
Regarding `CO[C@H](C(=O)[C@@H](O)[C@@H](C)O)[C@@H]1Cc2cc3cc(OC4CC(OC5CC(O)C(O)C(C)O5)C(O)C(C)O4)c(C)c(O)c3c(O)c2C(=O)[C@H]1OC1CC(OC2CC(OC3CC(C)(O)C(O)C(C)O3)C(O)C(C)O2)C(O)C(C)O1` (some centres undefined), the T/C (dose: 0.25 mg/kg/injection, schedule: Q01DX007 (ip), vehicle: water) is 72 % of control; the T/C (dose: 0.3 mg/kg/injection, schedule: Q01DX007 (ip), vehicle: water) is 50 % of control; the T/C (dose: 0.3 mg/kg/injection, schedule: Q02DX004 (ip), vehicle: water) is 74 % of control; the T/C (dose: 0.45 mg/kg/injection, schedule: Q01DX007 (ip), vehicle: water) was 45 % of control; the T/C (dose: 0.45 mg/kg/injection, schedule: Q02DX004 (ip), vehicle: water) is 80 % of control; the T/C (dose: 0.5 mg/kg/injection, schedule: Q01DX007 (ip), vehicle: water) is 57 % of control. For the same compound, the T/C reads like this: (dose: 0.6 mg/kg/injection, schedule: Q02DX004 (ip), vehicle: water) 47 % of control; (dose: 1.0 mg/kg/injection, schedule: Q01DX007 (ip), vehicle: water) 102 % of control; (dose: 1.0 mg/kg/injection, schedule: Q02DX004 (ip), vehicle: water) 80 % of control; (dose: 2.0 mg/kg/injection, schedule: Q01DX007 (ip), vehicle: water) 72 % of control; (dose: 2.0 mg/kg/injection, schedule: Q02DX004 (ip), vehicle: water) 67 % of control; (dose: 3.0 mg/kg/injection, schedule: Q02DX004 (ip), vehicle: water) 50 % of control. Further, the T/C by setting is: (dose: 4.0 mg/kg/injection, schedule: Q02DX004 (ip), vehicle: water) 60 % of control; (dose: 5.0 mg/kg/injection, schedule: Q02DX004 (ip), vehicle: water) 50 % of control.
On to `NNC(=O)c1nsnc1N`, for which, where the note is “dose: 75.0 mg/kg/injection, schedule: Q01DX007 (ip), vehicle: carboxymethylcellulose (CMC)”, the T/C is 97 % of control.
In the case of `CCOC(=O)NP(=O)(N1CC1)N1CC1`, the T/C was 113 % of control (dose: 937.0 micrograms/kg/injection, schedule: Q01DX007 (ip), vehicle: carboxymethylcellulose (CMC)); 100 % of control (dose: 1875.0 micrograms/kg/injection, schedule: Q01DX007 (ip), vehicle: carboxymethylcellulose (CMC)); 74 % of control (dose: 7500.0 micrograms/kg/injection, schedule: Q01DX007 (ip), vehicle: carboxymethylcellulose (CMC)).
Turning to `O=CNc1c(Cl)c(Cl)c2c(c1Cl)Cc1cc(Cl)ccc1-2`, the T/C was 70 % of control (dose: 5.0 mg/kg/injection, schedule: Q01DX007 (ip), vehicle: carboxymethylcellulose (CMC)); 60 % of control (dose: 15.0 mg/kg/injection, schedule: Q01DX007 (ip), vehicle: carboxymethylcellulose (CMC)); 34 % of control (dose: 30.0 mg/kg/injection, schedule: Q01DX007 (ip), vehicle: carboxymethylcellulose (CMC)); 63 % of control (dose: 49.0 mg/kg/injection, schedule: Q01DX007 (ip), vehicle: carboxymethylcellulose (CMC)); 64 % of control (dose: 73.0 mg/kg/injection, schedule: Q01DX007 (ip), vehicle: carboxymethylcellulose (CMC)); 51 % of control (dose: 110.0 mg/kg/injection, schedule: Q01DX007 (ip), vehicle: carboxymethylcellulose (CMC)). Further, where the note is “dose: 165.0 mg/kg/injection, schedule: Q01DX007 (ip), vehicle: carboxymethylcellulose (CMC)”, the T/C is 5 % of control.
